PubChem BioAssay (NCI)
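Growth conditions: 96-well plates. Treatment: test compound, 48 hours, 5 concentrations. Analysis: linear interpolation between bracketing concentrations; unreached endpoints set to highest concentration. Abbreviation: GI50, concentration required for 50% inhibition of growth. TGI: total growth inhibition.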

Legend:
Experiment in all cases: inhibition of tumour cell growth, NCI panel, 48 h
786-0 renal = system: 786-0 renal
A498 renal = system: A498 renal
A549 NSCLC = system: A549 NSCLC
CAKI-1 renal = system: CAKI-1 renal
CCRF-CEM leukemia = system: CCRF-CEM leukemia
COLO 205 colon = system: COLO 205 colon
DLD-1 colon = system: DLD-1 colon
DMS 273 small cell lung = system: DMS 273 small cell lung
EKVX NSCLC = system: EKVX NSCLC
HCT-116 colon = system: HCT-116 colon
HCT-15 colon = system: HCT-15 colon
HL-60(TB) leukemia = system: HL-60(TB) leukemia
HOP-62 NSCLC = system: HOP-62 NSCLC
HOP-92 NSCLC = system: HOP-92 NSCLC
HT29 colon = system: HT29 colon
IGROV1 ovarian = system: IGROV1 ovarian
K-562 leukemia = system: K-562 leukemia
KM12 colon = system: KM12 colon
KM20L2 colon = system: KM20L2 colon
LOX IMVI melanoma = system: LOX IMVI melanoma
LXFL 529 NSCLC = system: LXFL 529 NSCLC
M14 melanoma = system: M14 melanoma
M19-MEL melanoma = system: M19-MEL melanoma
MALME-3M melanoma = system: MALME-3M melanoma
MOLT-4 leukemia = system: MOLT-4 leukemia
NCI-H226 lung = system: NCI-H226 lung
NCI-H23 lung = system: NCI-H23 lung
NCI-H460 lung = system: NCI-H460 lung
NCI-H522 lung = system: NCI-H522 lung
OVCAR-3 ovarian = system: OVCAR-3 ovarian
OVCAR-4 ovarian = system: OVCAR-4 ovarian
OVCAR-5 ovarian = system: OVCAR-5 ovarian
OVCAR-8 ovarian = system: OVCAR-8 ovarian
RPMI-8226 leukemia = system: RPMI-8226 leukemia
RXF 393 renal = system: RXF 393 renal
SF-268 CNS = system: SF-268 CNS
SF-295 CNS = system: SF-295 CNS
SF-539 CNS = system: SF-539 CNS
SK-MEL-2 melanoma = system: SK-MEL-2 melanoma
SK-MEL-28 melanoma = system: SK-MEL-28 melanoma
SK-MEL-5 melanoma = system: SK-MEL-5 melanoma
SK-OV-3 ovarian = system: SK-OV-3 ovarian
SN12C renal = system: SN12C renal
SNB-19 CNS = system: SNB-19 CNS
SNB-75 CNS = system: SNB-75 CNS
SW-620 colon = system: SW-620 colon
TK-10 renal = system: TK-10 renal
U251 CNS = system: U251 CNS
UACC-257 melanoma = system: UACC-257 melanoma
UACC-62 melanoma = system: UACC-62 melanoma
UO-31 renal = system: UO-31 renal

Compound: CC(=O)[CH-]C(=O)c1ccccc1.CC(=O)[CH-]C(=O)c1ccccc1.CCCCCCCCCCCCCCCCCC(=O)[O-].CCCCCCCCCCCCCCCCCC(=O)[O-].[Ti+4]
- GI50 (786-0 renal): 18.8 µM
- TGI (786-0 renal): 33.2 µM
- GI50 (A498 renal): 25.7 µM
- TGI (A498 renal): 68.5 µM
- GI50 (A549 NSCLC): 19 µM
- TGI (A549 NSCLC): 37.3 µM
- GI50 (CAKI-1 renal): 19.8 µM
- TGI (CAKI-1 renal): 39.9 µM
- GI50 (CCRF-CEM leukemia): 23.2 µM
- TGI (CCRF-CEM leukemia): 86.3 µM
- GI50 (COLO 205 colon): 87.4 µM
- TGI (COLO 205 colon): > 100 µM
- GI50 (DLD-1 colon): 31.7 µM
- TGI (DLD-1 colon): > 100 µM
- GI50 (DMS 273 small cell lung): 20.1 µM
- TGI (DMS 273 small cell lung): 38.7 µM
- GI50 (EKVX NSCLC): 74.2 µM
- TGI (EKVX NSCLC): > 100 µM
- GI50 (HCT-116 colon): 18.3 µM
- TGI (HCT-116 colon): 36.5 µM
- GI50 (HCT-15 colon): 32.9 µM
- TGI (HCT-15 colon): 69.6 µM
- GI50 (HL-60(TB) leukemia): 19.3 µM
- TGI (HL-60(TB) leukemia): 43.9 µM
- GI50 (HOP-62 NSCLC): 30.7 µM
- TGI (HOP-62 NSCLC): 90.9 µM
- GI50 (HOP-92 NSCLC): 17 µM
- TGI (HOP-92 NSCLC): 33.9 µM
- GI50 (HT29 colon): 20.8 µM
- TGI (HT29 colon): 44.9 µM
- GI50 (IGROV1 ovarian): 34.9 µM
- TGI (IGROV1 ovarian): > 100 µM
- GI50 (K-562 leukemia): 22.3 µM
- TGI (K-562 leukemia): 62.1 µM
- GI50 (KM12 colon): 33.6 µM
- TGI (KM12 colon): > 100 µM
- GI50 (KM20L2 colon): 33.9 µM
- TGI (KM20L2 colon): > 100 µM
- GI50 (LOX IMVI melanoma): 18 µM
- TGI (LOX IMVI melanoma): 35.9 µM
- GI50 (LXFL 529 NSCLC): 18 µM
- TGI (LXFL 529 NSCLC): 34.6 µM
- GI50 (M14 melanoma): 17.4 µM
- TGI (M14 melanoma): 31.9 µM
- GI50 (M19-MEL melanoma): 27.6 µM
- TGI (M19-MEL melanoma): 97.9 µM
- GI50 (MALME-3M melanoma): 36.7 µM
- TGI (MALME-3M melanoma): > 100 µM
- GI50 (MOLT-4 leukemia): 21.7 µM
- TGI (MOLT-4 leukemia): 62 µM
- GI50 (NCI-H226 lung): 14.5 µM
- TGI (NCI-H226 lung): 34.3 µM
- GI50 (NCI-H23 lung): 36.1 µM
- TGI (NCI-H23 lung): > 100 µM
- GI50 (NCI-H460 lung): 30.7 µM
- TGI (NCI-H460 lung): 95.7 µM
- GI50 (NCI-H522 lung): 23.1 µM
- TGI (NCI-H522 lung): 62.4 µM
- GI50 (OVCAR-3 ovarian): 18.9 µM
- TGI (OVCAR-3 ovarian): 38 µM
- GI50 (OVCAR-4 ovarian): 16.6 µM
- TGI (OVCAR-4 ovarian): 31.8 µM
- GI50 (OVCAR-5 ovarian): 36.7 µM
- TGI (OVCAR-5 ovarian): > 100 µM
- GI50 (OVCAR-8 ovarian): 22.6 µM
- TGI (OVCAR-8 ovarian): 48.3 µM
- GI50 (RPMI-8226 leukemia): 21.6 µM
- TGI (RPMI-8226 leukemia): 55.4 µM
- GI50 (RXF 393 renal): 19.7 µM
- TGI (RXF 393 renal): 33.9 µM
- GI50 (SF-268 CNS): 21.6 µM
- TGI (SF-268 CNS): 47.6 µM
- GI50 (SF-295 CNS): 19.5 µM
- TGI (SF-295 CNS): 34.3 µM
- GI50 (SF-539 CNS): 17.2 µM
- TGI (SF-539 CNS): 31.3 µM
- GI50 (SK-MEL-2 melanoma): 21.7 µM
- TGI (SK-MEL-2 melanoma): 52.4 µM
- GI50 (SK-MEL-28 melanoma): 23.7 µM
- TGI (SK-MEL-28 melanoma): 60.5 µM
- GI50 (SK-MEL-5 melanoma): 21 µM
- TGI (SK-MEL-5 melanoma): 48.2 µM
- GI50 (SK-OV-3 ovarian): 21.9 µM
- TGI (SK-OV-3 ovarian): 37.9 µM
- GI50 (SN12C renal): 29.9 µM
- TGI (SN12C renal): 73.5 µM
- GI50 (SNB-19 CNS): 17.5 µM
- TGI (SNB-19 CNS): 33.6 µM
- GI50 (SNB-75 CNS): 11.7 µM
- TGI (SNB-75 CNS): 25.5 µM
- GI50 (SW-620 colon): 33.3 µM
- TGI (SW-620 colon): > 100 µM
- GI50 (TK-10 renal): 34.8 µM
- TGI (TK-10 renal): 99.1 µM
- GI50 (U251 CNS): 20.3 µM
- TGI (U251 CNS): 41.4 µM
- GI50 (UACC-257 melanoma): 24.6 µM
- TGI (UACC-257 melanoma): 68.5 µM
- GI50 (UACC-62 melanoma): 18.7 µM
- TGI (UACC-62 melanoma): 41.5 µM
- GI50 (UO-31 renal): 13.8 µM
- TGI (UO-31 renal): 26.7 µM
